Results taken from ChEMBL document CHEMBL4368896, “Thiosemicarbazones with tyrosinase inhibitory activity” (Medchemcomm, 2019).
Values joined by “and” are separate entries in the source; they are usually repeats but may differ in a detail not shown here. Equal values may be shown once. Blank lines part the entries; values can stand above or below the molecule they belong to.

How the values were obtained:
[1] = target: T1, Tyrosinase (Agaricus bisporus, UniProt O42713); assay: Inhibition of mushroom tyrosinase using L-dopa as substrate preincubated for 10 mins followed by substrate addition and measured for 1 min
T1 sequence (O42713 whole entry): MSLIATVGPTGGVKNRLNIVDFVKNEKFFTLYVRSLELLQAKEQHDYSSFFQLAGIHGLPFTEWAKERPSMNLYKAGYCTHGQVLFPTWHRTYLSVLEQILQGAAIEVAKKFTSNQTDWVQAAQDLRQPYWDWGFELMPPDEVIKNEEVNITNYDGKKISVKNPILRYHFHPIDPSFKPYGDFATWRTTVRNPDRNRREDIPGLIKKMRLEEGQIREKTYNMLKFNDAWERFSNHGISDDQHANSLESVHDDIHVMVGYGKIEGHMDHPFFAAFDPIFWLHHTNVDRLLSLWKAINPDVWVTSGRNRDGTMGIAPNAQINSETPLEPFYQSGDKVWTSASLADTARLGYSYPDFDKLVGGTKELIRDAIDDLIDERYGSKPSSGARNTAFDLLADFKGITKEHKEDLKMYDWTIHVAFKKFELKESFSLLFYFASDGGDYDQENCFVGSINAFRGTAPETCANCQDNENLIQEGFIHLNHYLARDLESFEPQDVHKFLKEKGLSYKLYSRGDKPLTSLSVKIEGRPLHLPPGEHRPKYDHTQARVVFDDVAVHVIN

[2] = target: T1, Tyrosinase; assay: Inhibition of mushroom tyrosinase using L-dopa as substrate measured for 150 secs by spectrophotometric analysis
[3] = target: T1, Tyrosinase; assay: Inhibition of mushroom tyrosinase monophenolase activity using L-tyrosine as substrate
[4] = target: T1, Tyrosinase; assay: Non-competitive inhibition of mushroom tyrosinase by Lineweaver-Burk plot analysis
[5] = target: T1, Tyrosinase
[6] = target: T2, Tyrosinase (Mus musculus, UniProt P11344); assay: Inhibition of tyrosinase in mouse B16 cells using L-DOPA as substrate preincubated for 72 hrs followed by substrate addition and measured after 30 mins; type: cell-based
T2 sequence (P11344 whole entry): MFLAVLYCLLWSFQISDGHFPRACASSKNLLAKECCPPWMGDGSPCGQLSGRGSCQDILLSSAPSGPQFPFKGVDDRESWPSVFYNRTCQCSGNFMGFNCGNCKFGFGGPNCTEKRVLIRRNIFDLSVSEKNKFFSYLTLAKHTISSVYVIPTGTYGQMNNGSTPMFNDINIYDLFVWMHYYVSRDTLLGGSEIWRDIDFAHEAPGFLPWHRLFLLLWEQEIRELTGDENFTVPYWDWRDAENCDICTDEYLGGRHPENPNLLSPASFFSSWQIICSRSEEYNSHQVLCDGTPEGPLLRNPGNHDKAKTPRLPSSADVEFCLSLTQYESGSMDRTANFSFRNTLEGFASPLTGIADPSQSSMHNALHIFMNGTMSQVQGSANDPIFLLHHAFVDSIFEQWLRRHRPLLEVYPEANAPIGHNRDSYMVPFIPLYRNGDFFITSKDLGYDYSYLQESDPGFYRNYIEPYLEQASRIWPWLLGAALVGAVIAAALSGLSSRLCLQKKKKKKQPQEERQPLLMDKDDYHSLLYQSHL

[7] = target: T3, Tyrosinase (Agaricus bisporus) (UniProt O42713); assay: (§1) Mixed-type inhibition of mushroom tyrosinase by Lineweaver-Burk plot analysis
T3 sequence (whole entry): T1 sequence (O42713 whole entry)

[8] = target: T1, Tyrosinase; assay: as §1
[9] = target: T1, Tyrosinase; assay: Inhibition of mushroom tyrosinase using L-dopa as substrate preincubated for 2 mins followed by substrate addition and measured for 5 mins by spectrophotometric analysis
[10] = target: T1, Tyrosinase; assay: Reversible inhibition of mushroom tyrosinase after 10 mins by Lineweaver-Burk plot analysis
[11] = target: T1, Tyrosinase; assay: Inhibition of mushroom tyrosinase monophenolase activity using L-tyrosine as substrate after 10 mins by spectrophotometric analysis
[12] = target: T3, Tyrosinase (Agaricus bisporus); assay: Mixed-type inhibition of mushroom tyrosinase after 10 mins by Lineweaver-Burk plot analysis
[13] = target: T1, Tyrosinase; assay: Inhibition of mushroom tyrosinase diphenolase activity using L-dopa as substrate after 10 mins by spectrophotometric analysis
[14] = target: T1, Tyrosinase; assay: Reversible competitive inhibition of mushroom tyrosinase using L-dopa as substrate preincubated for 2 mins followed by substrate addition and measured for 5 mins by Lineweaver-Burk plot analysis
[15] = target: T3, Tyrosinase (Agaricus bisporus); assay: (§2) Mixed-type inhibition of mushroom tyrosinase using L-dopa as substrate preincubated for 5 mins followed by substrate addition and measured for 3 mins
[16] = target: T1, Tyrosinase; assay: as §2
[17] = target: T1, Tyrosinase; assay: Non-competitive inhibition of mushroom tyrosinase using L-dopa as substrate preincubated for 5 mins followed by substrate addition and measured for 5 mins
[18] = target: T3, Tyrosinase (Agaricus bisporus)
Description: (§5) Reversible mixed-type inhibition of mushroom tyrosinase using L-dopa as substrate by Lineweaver-Burk plot analysis

[19] = target: T1, Tyrosinase; remark: listed apart in the source
Description: as §5

[20] = target: T1, Tyrosinase; assay: Reversible competitive inhibition of mushroom tyrosinase after 10 mins by Lineweaver-Burk plot analysis
[21] = target: T3, Tyrosinase (Agaricus bisporus); assay: (§3) Reversible mixed-type inhibition of mushroom tyrosinase by Lineweaver-Burk plot analysis
[22] = target: T1, Tyrosinase; assay: as §3
[23] = target: T3, Tyrosinase (Agaricus bisporus); assay: (§4) Mixed-type inhibition of mushroom tyrosinase using L-tyrosine as substrate by Lineweaver-Burk plot analysis
[24] = target: T1, Tyrosinase; assay: as §4

SMILES: CC(C)COc1ccc(/C=N/NC(N)=S)cc1
- IC50 [1]: 2210 nM

SMILES: CCCCC(=O)OCc1csc(/C=N/NC(N)=S)c1
- IC50 [2]: 110 nM

SMILES: NC(=S)N/N=C/c1ccc(OCOCCO)cc1
- IC50 [1]: 370 nM

SMILES: COCCCCOc1ccc(/C=N/NC(N)=S)cc1
- IC50 [1]: 410 nM

SMILES: CN(C)c1ccc(/C=N/NC(=S)Nc2ccccc2)cc1
- IC50 [3]: 1780 nM
- Ki [4]: 770 nM
- IC50 [5]: 800 nM

SMILES: CC/C(=N\N=C(\N)S)c1ccccc1
- IC50 [6]: < 1000 nM

SMILES: CCCCOCCOc1ccc(/C=N/NC(N)=S)cc1
- IC50 [1]: 920 nM

SMILES: COCCOc1ccc(/C=N/NC(N)=S)cc1
- IC50 [1]: 750 nM

SMILES: NC(=S)N/N=C/c1cc(COC=O)cs1
- IC50 [2]: 196 nM

SMILES: CC(=O)OCc1csc(/C=N/NC(N)=S)c1
- IC50 [2]: 340 nM

SMILES: COc1cc(/C=N/NC(N)=S)ccc1O
- IC50 [1]: 5680 nM

SMILES: CC(C)C/C(=N\NC(N)=S)c1ccccc1
- IC50 [6]: < 1000 nM

SMILES: COCc1csc(/C=N/NC(N)=S)c1
- IC50 [2]: 740 nM

SMILES: CNC(=S)N/N=C(\C)c1ccc(OC)cc1O
- IC50 [9]: 18000 nM

SMILES: NC(=S)N/N=C/c1cc(COC(=O)C2CCCC2)cs1
- IC50 [2]: 140 nM

SMILES: COc1ccc(/C=N/NC(N)=S)cc1O
- IC50 [1]: 4880 nM

SMILES: CNC(=S)N/N=C(\C)c1ccc(OC)cc1
- IC50 [9]: 65000 nM

SMILES: CNC(=S)N/N=C(\C)c1ccc(O)cc1O
- Ki [14]: 5000 nM
- IC50 [9]: 6000 nM

SMILES: NC(=S)N/N=C/c1cc(COC(=O)c2ccccc2)cs1
- IC50 [2]: 68 nM

SMILES: C/C(=N\NC(N)=S)c1ccco1
- IC50 [5]: 824 nM

SMILES: NC(=S)N/N=C/c1cc(CO)cs1
- IC50 [2]: 670 nM

SMILES: NC(=S)N/N=C/c1ccc(O)cc1Br
- IC50 [1]: 330 nM

SMILES: NC(=S)N/N=C/c1ccc(O)cc1O
- IC50 [1]: 180 nM

SMILES: C/C(=N\N=C(/N)S)c1ccccc1 [PHENYL(METHYL)THIOSEMICARBAZONE]
- Ki [20]: 380 nM
- Kis [12]: 0.83 µM and 1.4 µM
- IC50 [6]: 2000 nM

SMILES: NC(=S)N/N=C/c1cc(O)cc(O)c1
- IC50 [1]: > 30000 nM

SMILES: N=C(S)N/N=C/c1ccc(Oc2ccc(F)cc2)cc1
- IC50 [1]: 1460 nM

SMILES: CCCCCOc1ccc(/C=N/NC(N)=S)cc1
- IC50 [1]: 1090 nM

SMILES: CCCCCC/C(=N\NC(N)=S)c1ccccc1
- IC50 [6]: < 1000 nM

SMILES: CNC(=S)N/N=C(\C)c1ccccc1
- IC50 [9]: 213000 nM

SMILES: CCOCc1csc(/C=N/NC(N)=S)c1
- IC50 [2]: 490 nM

SMILES: C/C(=N\NC(N)=S)c1ccc[nH]1
- IC50 [5]: 4150 nM

SMILES: CCCC(=O)OCc1csc(/C=N/NC(N)=S)c1
- IC50 [2]: 105 nM

SMILES: NC(=S)N/N=C/c1cc(COC(=O)C2CCCCC2)cs1
- IC50 [2]: 136 nM

SMILES: COc1ccc(OC)c(/C=N/NC(N)=S)c1
- IC50 [1]: > 50000 nM

SMILES: CNC(=S)N/N=C(\C)c1ccccc1O
- IC50 [9]: 108000 nM

SMILES: COCCOCCOc1ccc(/C=N/NC(N)=S)cc1
- IC50 [1]: 340 nM

SMILES: CCCC/C(=N\NC(N)=S)c1ccccc1
- IC50 [6]: 1200 nM

SMILES: NC(=S)N/N=C/c1cc(COCCO)cs1
- IC50 [2]: 1420 nM

SMILES: CCCCCCCCCCC/C(=N\NC(N)=S)c1ccccc1
- IC50 [6]: < 1000 nM

SMILES: C/C(=N\NC(N)=S)c1cccs1
- IC50 [5]: 1410 nM

SMILES: CCCCC/C(=N\NC(N)=S)c1ccccc1
- IC50 [6]: < 1000 nM

SMILES: NC(=S)N/N=C/c1ccc(OCOC(CO)CO)cc1
- IC50 [1]: 940 nM

SMILES: CCC(=O)OCc1csc(/C=N/NC(N)=S)c1
- IC50 [2]: 161 nM

Next, values leading:

- IC50 [1]: > 40000 nM
SMILES: NC(=S)N/N=C/c1ccc(O)c(O)c1

- IC50 [3]: 6700 nM
- Kis [7]: 2.49 µM
- Ki [8]: 1250 nM
- IC50 [5]: 1820 nM
SMILES: NC(=S)N/N=C/c1ccc(Cl)cc1

- IC50 [1]: 1920 nM
SMILES: CCOc1ccc(/C=N/NC(N)=S)cc1

- Ki [10]: 1470 nM
- IC50 [11]: 7000 nM
- Kis [12]: 15.1 µM
- IC50 [1]: 1480 nM
- IC50 [6]: 139000 nM
- IC50 [13]: 2620 nM
SMILES: COc1ccc(/C=N/NC(N)=S)cc1

- IC50 [1]: 980 nM
SMILES: NC(=S)N/N=C/c1ccc(Oc2ccccc2)cc1

- IC50 [1]: 900 nM
SMILES: CC(C)Oc1ccc(/C=N/NC(N)=S)cc1

- IC50 [1]: 280 nM
SMILES: NC(=S)N/N=C/c1ccc(Br)cc1

- IC50 [1]: 3900 nM
SMILES: NC(=S)N/N=C/c1cccc(O)c1

- IC50 [3]: 15400 nM
- Ki [4]: 1200 nM
- IC50 [5]: 1220 nM
SMILES: NC(=S)N/N=C/c1ccccc1Cl

- IC50 [2]: 670 nM
SMILES: NC(=S)N/N=C/c1ccc(-c2ccccc2)s1

- IC50 [6]: < 2300 nM
SMILES: CC(C)/C(=N\NC(N)=S)c1ccccc1

- IC50 [6]: < 1000 nM
SMILES: CCC/C(=N\NC(N)=S)c1ccccc1

- Kis [15]: 93 µM
- Ki [16]: 930 nM
- Ki [17]: 3700 nM
- IC50 [6]: 10200 nM
SMILES: NC(=S)N/N=C/c1ccccc1 [PHENYLTHIOSEMICARBAZONE]

- IC50 [1]: 380 nM
SMILES: NC(=S)N/N=C/c1ccccc1O

- Kis [18]: 0.29 µM
- IC50 [5]: 3990 nM
- Ki [19]: 80 nM
SMILES: NC(=S)N/N=C/c1ccc[nH]1

- IC50 [1]: 1310 nM
SMILES: CCCCOc1ccc(/C=N/NC(N)=S)cc1

- Ki [10]: 2820 nM
- IC50 [11]: 760 nM
- Kis [12]: 6.79 µM
- IC50 [1]: 410 nM
- IC50 [13]: 3800 nM
SMILES: NC(=S)N/N=C/c1ccc(O)cc1

- Kis [18]: 2.59 µM
- IC50 [5]: 430 nM
- Ki [19]: 167000 nM
SMILES: NC(=S)N/N=C/c1cccs1

- Kis [18]: 1.18 µM
- IC50 [5]: 2350 nM
- Ki [19]: 600 nM
SMILES: NC(=S)N/N=C/c1ccco1

- Kis [21]: 8.85 µM
- Ki [22]: 4450 nM
SMILES: NC(=S)N/N=C/C=C/c1ccccc1

- IC50 [1]: 1290 nM
SMILES: C=CCOc1ccc(/C=N/NC(N)=S)cc1

- IC50 [1]: 3030 nM
SMILES: CCCOc1ccc(/C=N/NC(N)=S)cc1

- IC50 [3]: 1540 nM
- Kis [23]: 6.49 µM
- Ki [24]: 1770 nM
- IC50 [5]: 2020 nM
SMILES: CN(C)c1ccc(/C=N/NC(N)=S)cc1

- IC50 [1]: 530 nM
SMILES: NC(=S)N/N=C/c1ccc(OCCO)cc1
